Data from the supplement of paper PMC8967900.

How the values were obtained:
Assay in all cases: selective drug sensitivity score (sDSS, relative to normal bone marrow) (sDSS (score)); higher = more potent and effective on the cell line relative to normal bone marrow cells
Conditions in all cases: 72 h
COG-LL-332h = system: COG-LL-332h
MOLT-16 = system: MOLT-16
PEER = system: PEER
NALM-6 = system: NALM-6
REH = system: REH
NALM-16 = system: NALM-16
MHH-CALL-2 = system: MHH-CALL-2
CCRF-CEM = system: CCRF-CEM
MHH-CALL-4 = system: MHH-CALL-4
PF-382 = system: PF-382
COG-LL-402h = system: COG-LL-402h
RPMI-8402 = system: RPMI-8402
ALL-PO = system: ALL-PO
KOPN-8 = system: KOPN-8
SUP-B15 = system: SUP-B15
697 = system: 697
TMD5 = system: TMD5
COG-LL-317 = system: COG-LL-317
KARPAS-45 = system: KARPAS-45
MOLT-4 = system: MOLT-4
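Note: ALL cell lines in 384-well plates, five doses spanning 10,000-fold, each plate scaled between vehicle and 100 µmol/L benzalkonium chloride controls, sDSS an adapted area-under-curve metric.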

Structure (SMILES) | selective drug sensitivity score (COG-LL-332h) | selective drug sensitivity score (MOLT-16) | selective drug sensitivity score (PEER) | selective drug sensitivity score (NALM-6) | selective drug sensitivity score (REH) | selective drug sensitivity score (NALM-16) | selective drug sensitivity score (MHH-CALL-2) | selective drug sensitivity score (CCRF-CEM) | selective drug sensitivity score (MHH-CALL-4) | selective drug sensitivity score (PF-382) | selective drug sensitivity score (COG-LL-402h) | selective drug sensitivity score (RPMI-8402) | selective drug sensitivity score (ALL-PO) | selective drug sensitivity score (KOPN-8) | selective drug sensitivity score (SUP-B15) | selective drug sensitivity score 697 | selective drug sensitivity score (TMD5) | selective drug sensitivity score (COG-LL-317) | selective drug sensitivity score (KARPAS-45) | selective drug sensitivity score (MOLT-4)
NCCNc1ccc(NCCN)c2c1C(=O)c1ccncc1C2=O [Pixantrone] (top concentration 10000 nM) | -2.46 | -2.46 | -2.76 | -2.76 | 0.24 | -2.76 | 1.34 | -2.06 | -2.56 | -1.86 | -2.76 | -2.76 | -2.76 | -0.56 | -2.76 | -0.36 | -2.06 | -2.76 | -0.86 | -2.76
c1cc(CN2CCCNCCNCCCNCC2)ccc1CN1CCCNCCNCCCNCC1 [Plerixafor] (top concentration 10000 nM) | 0 | 0 | 0 | 0.3 | 0.1 | 0 | 0 | 0 | 0 | 0 | 0 | 0 | 0 | 0 | 0 | 0.7 | 0 | 0 | 0 | 0
O=C(c1ccc(OCCN2CCCCC2)cc1)c1c(-c2ccc(O)cc2)sc2cc(O)ccc12 [Raloxifene] (top concentration 10000 nM) | 0.92 | 1.02 | 0.82 | -0.88 | 4.62 | -2.28 | 0.22 | 1.42 | -2.28 | -0.58 | -1.68 | 1.92 | -0.38 | 0.52 | -2.18 | -0.28 | -1.88 | 0.42 | 3.32 | 1.42
CN(C)C(=O)c1cc2cnc(Nc3ccc(N4CCNCC4)cn3)nc2n1C1CCCC1 [Ribociclib] (top concentration 10000 nM) | 1.58 | 4.88 | 3.18 | 1.18 | -0.42 | 1.48 | 3.68 | 3.08 | -1.42 | 2.88 | 4.58 | 2.98 | 0.98 | 1.68 | 1.58 | 8.18 | 0.78 | 0.38 | 0.68 | -1.02
CN1CCN(CCOc2cc(OC3CCOCC3)c3c(Nc4c(Cl)ccc5c4OCO5)ncnc3c2)CC1 [Saracatinib] (top concentration 10000 nM) | 7.38 | 2.38 | 7.38 | -1.22 | -2.02 | -2.02 | -0.52 | -1.52 | -2.02 | 8.18 | 8.68 | 4.98 | -0.02 | 2.38 | 17 | 4.28 | 0.58 | 1.78 | 5.68 | 1.58
C=CC(=O)Nc1cccc(Nc2nc(Nc3ccc(OCCOC)cc3)ncc2F)c1 [Spebrutinib] (top concentration 1000 nM) | -0.16 | 0.64 | 0.74 | 2.04 | -0.16 | -0.16 | 5.84 | 1.64 | 3.24 | -0.16 | 0.84 | -0.16 | 4.14 | -0.16 | 0.04 | 1.94 | -0.16 | -0.16 | 1.14 | -0.16
C[C@@H]1CN(Cc2ccc(F)cc2)[C@@H](C)CN1C(=O)c1cc2c(C(=O)C(=O)N(C)C)cn(C)c2cc1Cl [Talmapimod] (top concentration 10000 nM) | 0 | 0 | 0 | 0 | 2.8 | 0 | 0 | 0 | 0 | 0 | 0 | 0.8 | 3.2 | 0 | 2.8 | 1 | 0 | 0 | 0 | 0
C[C@@H](C(=O)O)c1ccc(-c2ccccc2)c(F)c1 [Tarenflurbil] (top concentration 10000 nM) | 4.14 | 5.04 | -0.16 | 3.44 | -0.06 | 0.04 | -0.16 | -0.16 | -0.16 | -0.16 | -0.16 | -0.16 | -0.16 | -0.16 | 0.44 | -0.16 | 3.64 | -0.16 | -0.16 | 0.14
CNC(=O)c1cc(COc2nnc(Nc3ccc(Cl)cc3)c3ccoc23)ccn1 [Telatinib] (top concentration 10000 nM) | 0 | 0 | 0 | 0 | 2.6 | 0 | 0.4 | 0 | 0 | 0 | 0 | 0 | 0 | 0.9 | 0 | 1.6 | 0.9 | 0 | 0 | 0
O=c1sn(-c2cccc3ccccc23)c(=O)n1Cc1ccccc1 [Tideglusib] (top concentration 3000 nM) | -0.3 | -0.3 | -0.3 | -0.3 | 0.4 | -0.3 | 0.5 | -0.3 | 0.9 | -0.3 | -0.3 | -0.3 | -0.3 | -0.3 | -0.3 | -0.3 | -0.3 | -0.3 | -0.3 | -0.3
